# Reference: ChEMBL document CHEMBL5346863, “Discovery of substituted benzyloxy-benzylamine inhibitors of acetyltransferase Eis and their anti-mycobacterial activity” (Eur J Med Chem, 2022)
# Active and inactive are the calls of the source. The rule behind the calls is not given here.
# Columns and labels:
# Mycobacterium avium = assay: Antibacterial activity against Mycobacterium avium ATCC 25291 assessed as bacterial growth inhibition incubated for 2 to 3 weeks by resazurin dye based assay; type: functional; settings: time 2-3 weeks
# HEK293 = assay: Cytotoxicity against HEK293 cells upto 12.5 uM incubated for 24 hrs by resazurin dye based cell viability assay; type: toxicity; settings: human, hek293, 24 h
# [1] = system: Mycobacterium tuberculosis; assay: Antibacterial activity against Mycobacterium tuberculosis H37Ra assessed as bacterial growth inhibition incubated 2 to 3 weeks by resazurin dye based assay; type: functional; settings: time 2-3 weeks
# [2] = system: Mycobacterium tuberculosis; assay: Antibacterial activity against Mycobacterium tuberculosis mc2 6230 assessed as bacterial growth inhibition incubated 2 to 3 weeks by resazurin dye based assay; type: functional; settings: time 2-3 weeks
# [3] = system: Mycobacterium tuberculosis; assay: Antibacterial activity against Mycobacterium tuberculosis H37Rv assessed as MIC of kanamycin A at 100 uM incubated for 24 hrs followed by kanamycin A addition measured after 6 days by alamarblue dye based assay; type: functional; settings: for Activity: time 7.0 day; for MIC: 168 h, time 7 day
# [4] = system: Mycolicibacterium smegmatis; assay: Antibacterial activity against Mycobacterium smegmatis mc2 122 assessed as bacterial growth inhibition incubated for 2 to 3 weeks by resazurin dye based assay; type: functional; settings: time 2-3 weeks
# J774.1 = assay: Cytotoxicity against mouse J774.1 cells upto 12.5 uM incubated for 24 hrs by resazurin dye based cell viability assay; type: toxicity; settings: j774.1, 24 h
# [5] = system: Mycobacterium intracellulare; assay: Antibacterial activity against Mycobacterium intracellulare ATCC 13950 assessed as bacterial growth inhibition incubated for 2 to 3 weeks by resazurin dye based assay; type: functional; settings: time 2-3 weeks
# [6] = system: Mycobacteroides abscessus; assay: Antibacterial activity against Mycobacterium abscessus ATCC 19977 assessed as bacterial growth inhibition incubated for 2 to 3 weeks by resazurin dye based assay; type: functional; settings: time 2-3 weeks
# [7] = system: Mycobacterium parascrofulaceum; assay: Antibacterial activity against Mycobacterium parascrofulaceum ATCC BAA-614 assessed as bacterial growth inhibition incubated for 2 to 3 weeks by resazurin dye based assay; type: functional; settings: time 2-3 weeks
# A549 = assay: Cytotoxicity against human A549 cells upto 12.5 uM incubated for 24 hrs by resazurin dye based cell viability assay; type: toxicity; settings: a549, 24 h
# N-acetyltransferase Eis = molecular target: T1, N-acetyltransferase Eis (Mycobacterium tuberculosis (strain ATCC 25618 / H37Rv), UniProt P9WFK7); assay: Inhibition of wild-type Mycobacterium tuberculosis Eis expressed in Escherichia coli BL21(DE3) cells incubated for 5 mins by Ellman's method
# T1 sequence (P9WFK7 whole entry): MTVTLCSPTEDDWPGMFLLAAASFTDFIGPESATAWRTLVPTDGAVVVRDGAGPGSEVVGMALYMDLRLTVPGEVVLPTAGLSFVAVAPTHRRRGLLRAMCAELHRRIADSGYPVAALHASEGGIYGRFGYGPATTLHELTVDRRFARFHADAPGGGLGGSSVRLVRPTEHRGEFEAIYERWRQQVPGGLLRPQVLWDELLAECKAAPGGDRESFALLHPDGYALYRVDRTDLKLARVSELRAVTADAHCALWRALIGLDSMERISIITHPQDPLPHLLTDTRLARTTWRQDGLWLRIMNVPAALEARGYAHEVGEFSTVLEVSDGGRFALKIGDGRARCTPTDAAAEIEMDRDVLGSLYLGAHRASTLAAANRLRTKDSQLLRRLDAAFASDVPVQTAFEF
# [8] = system: Mycobacterium tuberculosis; assay: Antibacterial activity against Mycobacterium tuberculosis K204 assessed as MIC of kanamycin A at 95.9 uM incubated for 24 hrs followed by kanamycin A addition measured after 6 days by alamarblue dye based assay; type: functional, organism-based; settings: time 7.0 day
# [9] = system: Mycobacterium tuberculosis; assay: Antibacterial activity against Mycobacterium tuberculosis H37Rv assessed as MIC of kanamycin A at 95.9 uM incubated for 24 hrs followed by kanamycin A addition measured after 6 days by alamarblue dye based assay; type: functional, organism-based; settings: time 7.0 day
# [10] = system: Mycobacterium tuberculosis; assay: Antibacterial activity against Mycobacterium tuberculosis mc2 6230 K204 assessed as MIC of kanamycin A at 25 uM incubated for 24 hrs followed by kanamycin A addition measured after 6 days by alamarblue dye based assay; type: functional; settings: Mycobacterium tuberculosis, mc2 6230 K204, 168 h, time 7 day, read-out: MIC
# [11] = system: Mycobacterium tuberculosis; assay: Antibacterial activity against Mycobacterium tuberculosis mc2 6230 assessed as MIC of kanamycin A at 25 uM incubated for 24 hrs followed by kanamycin A addition measured after 6 days by alamarblue dye based assay; type: functional; settings: mc2 6230, 168 h, time 7 day
Compound,MIC (Mycobacterium avium),Activity (HEK293),MIC [1],MIC [2],Activity [3],MIC [4],Activity (J774.1),MIC [5],MIC [6],MIC [7],Activity (A549),IC50 (N-acetyltransferase Eis),Activity [8],Activity [9],MIC [10],MIC [11],MIC [3]
Fc1ccc(COc2ccccc2CNCc2ccccc2)cc1,> 62.5 µM,Non-Toxic,31.3 µM,50 µM,Active,> 62.5 µM,Non-Toxic,31.3 µM,31.3 µM,31.3 µM,Non-Toxic,~8 µM,,,,,
CC(C)(C)c1ccc(COc2ccc(CNCc3ccccc3)cc2)cc1,31.3 µM,,1 µM,12.5 µM,,3.9 µM,,,7.8 µM,,,> 200 µM,,,,,
Fc1ccc(COc2cccc(CNCc3ccccc3)c2)cc1,15.6 µM,,3.9 µM,50 µM,,,,,31.3 µM,,,7.3 µM,,,,,
Cc1ccc(COc2ccc(CNCc3ccccc3)cc2)cc1,15.6 µM,,15.6 µM,1.56 µM,,1 µM,,15.6 µM,31.3 µM,15.6 µM,,> 200 µM,,,,,
Brc1ccc(COc2ccccc2CNCc2cccnc2)cc1,> 62.5 µM,Non-Toxic,,100 µM,Active,,Non-Toxic,> 62.5 µM,> 62.5 µM,> 62.5 µM,Non-Toxic,~8 µM,Active,Active,,,
NCC[C@H](O)C(=O)N[C@@H]1C[C@H](N)[C@@H](O[C@H]2O[C@H](CN)[C@@H](O)[C@H](O)[C@H]2O)[C@H](O)[C@H]1O[C@H]1O[C@H](CO)[C@@H](O)[C@H](N)[C@H]1O [AMIKACIN],3.9 µM,,,,,≤ 0.25 µM,,≤ 0.25 µM,1 µM,0.25 µM,,,,,,,
Brc1ccc(COc2ccc(CNCc3ccccc3)cc2)cc1,62.5 µM,,7.8 µM,12.5 µM,,7.8 µM,,15.6 µM,15.6 µM,7.8 µM,,1.5 µM,,,,,
Brc1cccc(COc2ccc(CNCc3ccccc3)cc2)c1,31.3 µM,,3.9 µM,50 µM,,2 µM,,3.9 µM,31.3 µM,2 µM,,2.4 µM,,,≤ 1.25 µM,< 1.25 µM,
c1ccc(COc2ccccc2CNCc2ccncc2)cc1,> 62.5 µM,,125 µM,> 100 µM,,> 62.5 µM,,> 62.5 µM,> 62.5 µM,62.5 µM,,~40 µM,,,,,2.5 µg/mL
COc1ccc(COc2ccc(CNCc3ccccc3)cc2)cc1,31.3 µM,,3.9 µM,12.5 µM,,62.5 µM,,,31.3 µM,,,12 µM,,,,,
c1ccc(COc2ccc(CNCc3ccncc3)cc2)cc1,2 µM,,> 62.5 µM,50 µM,,> 62.5 µM,,62.5 µM,> 62.5 µM,,,~40 µM,,,,,
c1ccc(CNCc2ccccc2OCc2ccccc2)cc1,> 62.5 µM,,,100 µM,Active,> 62.5 µM,,31.3 µM,,15.6 µM,,~15 µM,,,,,
NNC(=O)c1ccncc1 [ISONIAZID],> 31.3 µM,,,,,3.9 µM,,3.9 µM,> 31.3 µM,7.8 µM,,,,,,,
Fc1ccc(COc2cccc(CNCc3cccnc3)c2)cc1,> 62.5 µM,,62.5 µM,100 µM,,> 62.5 µM,,> 62.5 µM,> 62.5 µM,> 62.5 µM,,6.4 µM,,,,,≤ 1.25 µg/mL
